One series relates to lungs of balb/c mice. The protocol: This assay was used to assess the ability of the cationic amphiphiles of the invention to transfect cells in vivo from live specimens. In the assay, the lungs of balb/c mice were instilled intra-nasally (the procedure can also be performed trans-tracheally) with 100 μl of cationic amphiphile:DNA complex, which was allowed to form during a 15-minute period prior to administration according to the following procedure. The amphiphile (premixed with co-lipid, see below) was hydrated in water for 10 minutes, a period sufficient to yield a suspension at twice the final concentration required. This was vortexed for two minutes and aliquoted to provide 55 microliter quantities for each mouse to be instilled. Similarly, DNA encoding the reporter (CAT) gene was diluted with water to a concentration twice the required final concentration, and then aliquoted at 55 microliters for each mouse to be instilled. The lipid was gently combined with the DNA (in a polystyrene tube), and the complex allowed to form for 15 minutes before the mice were instilled therewith.
The plasmid used (pCMVHI-CAT, see Example 4) provides an encoding DNA for chloramphenicol transferase enzyme. Specifics on the amphiphile:DNA complexes are provided below.
Two days following transfection, mice were sacrificed, and the lungs and trachea removed, weighed, and homogenized in a buffer solution (250 mM Tris, pH 7.8, 5 mM EDTA). The homogenate was darifed by centrifugation, and the deacetylases therein were inactivated by heat treatment at 70° C. for 10 minutes. Lysate was incubated overnight with acetyl coenzyme A and C^14-chloramphenicol. CAT enzyme activity was then visualized by thin layer chromatography (“TLC”) following an ethyl acetate extraction.
The presence of the enzyme CAT will cause an acetyl group to be transferred from acetyl coenzyme A to C^14-chloramphenicol. The acetylated/radiolabeled chloramphenicol migrates faster on a TLC plate and thus its presence can be detected.
With respect to the comparison provided by FIG. 10, the following conditions are of note. The transfection solution for spermidine cholesterol carbamate contained 6 mM DNA measured as concentration of nucleotide, and 1.5 mM of cationic amphiphile. […] For transfection with DC-chol, the molar ratio of DC-chol to DOPE was 3:2, and the concentrations of cationic amphiphile and of DNA (as nucleotide) were 1.3 mM and 0.9 mM, respectively. For transfection with DMRIE, the molar ratio of DMRIE to DOPE was 1:1 and the concentrations of cationic amphiphile and of DNA were 1.7 mM and 12 mM, respectively.

Series [1] can be described thus: Transacylation reaction of amphiphile with co-lipid DOPE on co-storage. The format is physicochemical. An excerpt: Although heretofore unrecognized in the art, it has been determined also that certain co-lipids may react chemically with certain types of cationic amphiphiles under conditions of co-storage, there resulting new molecular species. Generation of such new species is believed to occur via mechanisms such as transacylation. In this regard, see FIG. 4 which depicts a transacylation reaction involving spermine cholesterol carbamate (No.67) and DOPE, there resulting lyso PE species and multiple forms of particular acyl-cationic amphiphile (designated No. 80).
It is expected that these phenomena would also apply to lyophilized amphiphile/DOPE preparations.
Accordingly, it is highly preferred to maintain such amphiphile/DOPE preparations at very cold temperatures, such as −70 degrees C.

Another series has as its system lungs of mice. Description: CAT assay, parts B and C: intra-nasal, pCF1/CAT or pCF2/CAT vectors. Particulars: mouse. The text has this: That the novel amphiphiles of the invention are an important contribution to the art is immediately seen by comparing their performance—as in vivo transfection enhancers—to that of closely related cationic amphiphiles that lack the novel T-shape. It has been determined that spermidine cholesterol carbamate provides a much greater level of enhancement than N^1-spermidine cholesteryl carbamate which contains the same number of carbon and nitrogen atoms in its cationic alkylamine component but which is linear and not “T-shaped”. Following generally the procedures of Example 3, part B, and using respectively 6 mM (as nucleotide), 1.5 mM, and 1.5 mM concentrations of DNA, amphiphile and of co-lipid, the transfection enhancement provided by spermidine cholesterol carbamate (amphiphile No.53), in relation to N^1-spermidine cholesteryl carbamate, was determined to be about 30 fold.
Also following the procedures of Example 3, part B, and using respectively 4 mM (as nucleotide), 1 mM, and 2 mM concentrations of DNA, amphiphile and co-lipid, the transfection enhancement provided by spermine cholesterol carbamate (amphiphile No. 67)—in relation to N^1-thermospermine cholesteryl carbamate and N^1-spermine cholesteryl carbamate to which spermine cholesterol carbamate is similarly related—is at least about 30 fold.

Series [2] in a line: Transgene expression by protonation state of the amphiphile in transfecting composition with DOPE. To be noted: amphiphile as free base; with DOPE zwitterion; plasmid DNA sodium salt in water. An excerpt: An additional aspect of the invention concerns the protonation state of the cationic amphiphiles of the invention prior to their contacting plasmid DNA in order to form a therapeutic composition. It is within the practice of the invention to utilize fully protonated, partially protonated, or free base forms of the amphiphiles in order to form such therapeutic compositions. With respect to amphiphile No. 67 (spermine cholesterol carbamate), it has been observed that when providing this amphiphile for a transfecting composition with DOPE (itself provided as a zwitterion), transgene expression was best for the free base, but decreased if the amphiphile was prepared as an acetate salt. […] Under the circumstances described, the plasmid DNA provided for contacting with the amphiphile was prepared (without buffer) as a sodium salt in water.

The test system of series [3] is Immortalized human cystic fibrosis airway cells (CFT-1). Description: SPQ assay of cAMP-stimulated Cl− channel activity after pCMV-CFTR transfection. In kind it is cell-based. Here is the method:
Immortalized human cystic fibrosis airway cells (CFT-1, as above) were used.
In preparation for the assay, the cells were grown on glass coverslips until approximately 60% confluent The cells were hen transfected with a complex of spermidine cholesterol carbamate:DOPE (1:1) and a plasmid(pCMV-CFTR) containing a cDNA that encodes wild type human CFTR pCMV-CFTR plasmid is a construct containing the encoding sequence for CFTR and the following regulatory elements, a CMV promoter and enhancer, and an SV40 polyadenylation signal. Additional constructs suitable for the practice of this example include pMT-CFTR, Cheng et al., Cell, 63,827-834 (1990). The complex used was 10.5 μmolar of spermidine cholesterol carbamate (also of DOPE) and 30 μmolar of pCMV-CFTR based on nucleotide.
48 hours after amphiphile-mediated transfection, cells were tested for cAMP-stimulated Cl^− channel activity using the 6-methoxy-N-(3-sulfopropyl)quinolinium (“SPQ”) assay. […] In the assay, cAMP-dependent Cl^− channel activity was assessed using “SPQ” (from Molecular Probes, Eugene, Oreg.), a halide-sensitive fluorophore. Increases in halide permeability results in a more rapid increase in SPQ fluorescence, and the rate of change (rather than the absolute change in fluorescence) is the important variable in assessing Cl^− permeability. […]

For series [4], the system named is CFT-1 cell line (human cystic fibrosis bronchial epithelial cells). Briefly: Cell transfection assay (β-galactosidase expression). In kind it is cell-based. Particulars: 1:1 mixture with DOPE, pCMVβ.
Description: Following combination of the solutions, a thin film was produced by removing chloroform from the mixture by evaporation under reduced pressure (20 mm Hg). The film was further dried under vacuum (1 mm Hg) for 24 hours.
The resulting suspension was then diluted with 4 ml of water to yield a solution that is 670 μM in cationic amphiphile and 670 μM in neutral colipid.
For preparation of the transfecting solution, DNA encoding for β-galactosidase (pCMVβ, ClonTech., Palo Alto, Calif.) was dissolved in OptiMEM culture medium (Gibco/BRL No. 31885-013).
The resulting 335 μM solutions were then serially diluted 7 times to generate 8 separate amphiphile-containing solutions having concentrations ranging from 335 μM to 2.63 μM, with each resultant solution having a volume of 165 μl. Thus, 64 solutions were prepared in all, there being 8 wells each of 8 different concentrations of amphiphile/DOPE.
Independently, DNA solutions (165μl, 960 μM) were pipetted into 8 wells containing OptiMEM (165 μl), and the resulting 480 μM solutions were then serially diluted 7 times to generate 8 separate 165 μl solutions from each well, with the concentrations of DNA in the wells ranging from 480 μM to 3.75 μM. […]
A short description of series [5]: Excipient selection against amphiphile/DNA aggregate formation. The format is physicochemical. Particulars: particularly as DNA concentration is increased. An excerpt: Additionally, the therapeutic compositions of the invention can in general be formulated with excipients (such as the carbohydrates lactose, trehalose, sucrose, mannitol, maltose or galactose) and may also be lyophilized (and then rehydrated) in the presence of such excipients prior to use. Conditions of optimized formulation for each amphiphile of the invention are capable of determination by those skilled in the pharmaceutical art. […] Addition of such excipients maintains the consistency of lyophilized pharmaceutical compositions during storage, and prevent difficulties such as aggregation, or insolubity, that may likely occur upon rehydration from the lyophilized state.

For the next series, the system named is lung and heart. Briefly: Intravenous delivery of pCF-1CAT complex, CAT expression in organs. In kind it is in vivo, BALB/c mouse. To be noted: for organ distribution of CAT expression: DNA 0.9 mM, i.v. tail vein, 48 h. Here is the method:
The reporter plasmid pCF-1CAT (Example 4) was used and was purified to minimize endotoxin (<1 EU/mg pDNA), and also chromosomal DNA contamination (<2%). Amphiphile No. 53 (1:1 with DOPE)/DNA complex was prepared according to the procedures of Example 3. The amphiphile was provided as the free base, the plasmid was prepared as a sodium salt in water, and the DOPE was provided in zwitterionic form.
The animal model was the BALB/c mouse. Females 6-8 weeks old weighing 16-18 g were injected intravenously using the tail vein, using 5 animals per group. The volume of lipid:pDNA complex used was 100 μl in all experiments. Unless noted otherwise, mice were sacrificed 48 h following administration of the complex. Organs were frozen immediately on dry ice to store for subsequent analysis.
Expression of chloramphenicol acetyl transferase (CAT) was quantitated using a radiochemical assay for CAT enzymatic activity. Organs Were weighed and homogenized on ice in a lysis buffer containing protease inhibitors. The lysate was freeze-thawed 3×, centrifuged, and heated to 65° C. to inactivate deacetylases before adding it to a reaction mixture containing ^14C-chloraamphenicol. After an incubation at 37° C., the mixture was extracted with ethyl acetate, concentrated, spotted onto TLC plates and eluted with CHCl3/MeOH. Spots corresponding to the acylated reaction products were quantitated (Betagen) and converted to ng CAT activity using authentic CAT standards.

The test system of series [6] is Primary nasal polyp cells from a cystic fibrosis patient (Δ F508). Description: cAMP-stimulated transepithelial chloride secretion in modified Ussing chamber after pCMV-CFTR transfection. In kind it is cell-based, human. To be noted: 1:1 with DOPE; 42 μmolar amphiphile, 60 μmolar pCMV-CFTR; forskolin and IBMX. Here is the method:
Primary (non-immortalized) nasal polyp cells from an adult cystic fibrosis patient (homozygous for the Δ F508mutation) were grown on collagen-coated permeable filter supports (Millicells) to form a polarized and confluent epithelial monolayer. Once the monolayer was electrically tight (about 5 to 7 days post seeding, and as indicated by the development of resistance across the cell sheet), the apical surface can be exposed to formulations of cationic amphiphile: DNA complex.
In this case, the amphiphile (spermidine cholesterol carbamate) was provided as a 1:1 (by mole) mixture with DOPE, and this mixture was then complexed with pCMV-CFTR plasmid vector (a construct encoding wild type human cystic fibrosis transmembrane conductance regulator protein, see above). Concentrations in the final mixture were 42 μmolar of spermidine cholesterol carbamate (and also of DOPE) and 60 μmolar (based on morality in nucleotides) of the plasmid expression vector.
Expression of CFTR was determined by measuring cAMP-stimulated transepithelial chloride secretion in a modified Ussing chamber, Zabner et al., Nature Genetics, 6, 75-83 […]. The mucosal side of the epithelium was bathed in Ringer's bicarbonate solution bubbled with 95% O2 and 5% CO2. […] Transepithelial voltage was clamped to 0 m V and short circuit current was recorded. […]

The mark [7] stands for this setting: 1.0-1.5 mM amphiphile, cholesterol 1:1, DNA 4.0-6.0 mM, intra-nasal.

Consider “1,2-dimyristyloxypropyl-3-dimethyl-hydroxyethyl ammonium bromide [DMRIE, reference compound]”, for which the “CAT activity in lung” value with lungs of balb/c mice (1:1 molar with DOPE, 1.7 mM DMRIE, 1.7 mM DOPE, 1.2 mM plasmid DNA as nucleotide) is 1 to 2 ng activity per 100 mg lung tissue.

`CC(C)CCCC(C)C1CCC2C3CC=C4CC(OC(=O)N(CCCN)CCCCNCCCN)CCC4(C)C3CCC12C` (stereo not drawn) [amphiphile No. 67, N^4-spermine cholesteryl carbamate]: the “transacylation with DOPE” value in series [1] (amphiphile as mono, di, or tri acetate salt) is reported as “slow transacylations”; in [1] (aqueous solution where bilayer-containing structures such as liposomes can form), “will permit transacylation”; in series [1] (mixture of amphiphile and DOPE in chloroform solvent), “does not appear to participate”. In addition, in the series on lungs of mice, the “activity of amphiphile (in vivo transfection)” value (from here on “activity of amphiphile”) was “highly active”. In addition, the “in vivo transfection in comparison with non T-shaped amphiphiles having equivalent cationic alkylamine structure” value in the series with lungs of mice is recorded as “superior transfectants”. Further, in series [2], the transgene expression entry is “best”.

As to `CC(C)CCC[C@@H](C)[C@H]1CC[C@H]2[C@@H]3CC=C4C[C@@H](OC(=O)N(CCCCNCCCN)CCCNCCCN)CC[C@]4(C)[C@H]3CC[C@]12C` [amphiphile No. 75, N^1,N^8-Bis(3-aminopropyl)-N^4-spermidine cholesteryl carbamate], in the series on lungs of mice, the “activity of amphiphile” value is “highly active”.

Regarding `CC(C)CCCC(C)C1CCC2C3CC=C4CC(OC(=O)N(CCCN)CCCCN)CCC4(C)C3CCC12C` (stereo not drawn) [amphiphile No. 53, N^4-spermidine cholesteryl carbamate], in [3], the “transferring CFTR-encoding plasmid into immortalized CF airway cells” value is recorded as “effective”. Moreover, in series [4], the “transfection efficiency improved by a factor, relative to DMRIE:DOPE (1:1)” value was “about 5”. Also, the “excipient preferred to prevent formation of amphiphile/DNA aggregates” value in [5] is reported as “sucrose is preferred over mannitol”. In the series on lungs of mice, the “activity of amphiphile” value is listed as “highly active” and the “in vivo transfection in comparison with non T-shaped amphiphiles having equivalent cationic alkylamine structure” value is “superior transfectants”. Moreover, the “organ distribution of CAT expression” value in the series with lung and heart (amphiphile/DNA molar ratio less than about 0.5) is reported as “strongly weighted toward the lung”. Moreover, the “organ distribution of CAT expression” value in the series on lung and heart (amphiphile/DNA ratio of 1.25) is “substantial expression was found in the heart”. In the series with lung and heart (constant DNA concentration 0.9 mM, i.v.), the “targeting to the lung over a range of amphiphile/DNA ratios” value is “remained relatively constant”. In addition, in series [6], the cAMP-stimulated current is reported as 0.5 to 2.5 μampere/cm^2. Further, the “enhancement of in vivo transfection (ng CAT activity per 100 mg tissue) in relation to DMRIE and DC-Chol” value with lungs of balb/c mice (1.5 mM amphiphile, 1:1 DOPE, 6 mM DNA (nucleotide), intra-nasal, 2 days) is given as no less than 20 fold. Moreover, in the series with lungs of balb/c mice (setting [7]), the “transfection efficiency (ng CAT/100 mg tissue) with cholesterol as co-lipid, compared with DOPE as co-lipid” value is on record as “less effective” and the “transfection with cholesterol as co-lipid, compared with DC-Chol/DOPE” value is given as “substantially more effective”. Also, in the series on lungs of balb/c mice (about 0.75 mM amphiphile and 3.0 mM plasmid, versus the optimal 1.5 mM/6 mM), the “toxicity to the target cells” value is recorded as “less toxic”.

(Values after patent publication US6383814B1, “Cationic amphiphiles for intracellular delivery of therapeutic molecules” (Genzyme Corporation, priority 1994, dated 2002).)
